Laboratory results published in US11098082B2, “Antigenic peptides and uses thereof for diagnosing and treating autism” (The Regents of the University of California, priority 2015, dated 2021).

Assays:
Assay type in all cases: binding, human
maternal autoantibodies = experiment: validation peptide microarray incubated with maternal plasma samples (ASD vs TD mothers); details: for binding by autoantibodies, ASD samples compared with TD samples: in words; for Number (%) Positive In ASD / Number Positive In ASD (n = 46): plasma of mothers of children with ASD, n = 46; for Number Positive In ASD (n = 46): peptide called positive (reactive) per sample; for Number (%) Positive In TD / Number Positive In TD (n = 21): plasma of mothers of typically developing children, n = 21
[1] = test system: autoantibodies present in a maternal sample; experiment: ELISA with the full-length STIP1 polypeptide; details: Sample No. 1190
[2] = test system: autoantibodies present in a maternal sample; experiment: STIP1 peptide ELISA with maternal plasma samples; details: plasma 1:400; for Final (absorbance, average minus blank): 450 nm; for Average (absorbance): 450 nm with 490 nm reference, duplicate
From the text: The peptides of Table 2 were synthesized with a linker and biotinylated. In particular, each biotinylated peptide was biotin-SGSS-peptide-DKP with SGSS (SEQ ID NO: 121) as the spacer and a diketopiperazine (DKP) group at the C-terminus of the peptide. Pierce® NeutrAvidin® protein coated microwell plates (Thermo Scientific) were washed with PBST and excess buffer was removed from the wells. The biotinylated peptides were reconstituted in pure solvent (e.g., DMSO or DMF) or a solvent/water mixture. The reconstituted peptide was diluted […] in ultra pure water to a final concentration of 5 μg/ml. 100 μl of the diluted biotinylated peptide was dispensed into the wells and incubated for 1 hour at room temperature or overnight at 4° C. on a slow rocker. Reference wells were left uncoated but filled with buffer. Nonspecific binding sites were blocked by incubation with 200 μl of a 5% Pierce® Superblock™ PBS solution for 2 hours at room temperature. Subsequently, the plates were washed six times with PBST using an automated plate washer.
The following method adapted from Sanchez et al. (Cancer Chemother. Pharmacol., 66: 919-925 (2010)) was used to detect maternal antibodies against one or more of the peptides of the ELISA-based assay described above: Maternal plasma samples were obtained including samples predetermined to be reactive to the full-length antigens of the peptides in the assay. The test samples were diluted in sample diluent (e.g., 2.5% Pierce® Superblock™ in PBST) and 100 μl of each sample was added to the wells of the assay plate. All samples were analyzed in duplicate in both peptide-coated and uncoated wells. The diluted samples were incubated for 1 hour at room temperature. The plates were then washed six times with PBST. The labeled secondary antibody solution (e.g., horseradish peroxidase-conjugated goat anti-human IgG, Invitrogen) was added to the wells and incubated for 30 minutes at room temperature. The plates were again washed eight times with PBST. The plates were then washed with PBS without Tween twice. The BD Opt EIA™ substrate (BD Biosciences Pharmingen, San Diego, Calif.) was added to the wells and incubated at room temperature for 10 minutes. The STOP solution (2N H2SO4) was added and the plate was read at 450 nm using a reference filter at 490 nm.
In particular, four maternal plasma samples were tested for their reactivity to a STIP1 peptide having the amino acid sequence PPPPPPKKETKPEPM (SEQ ID NO:22) using the following peptide ELISA protocol: • 1. Bring all reagents to room temperature. • 2. Peptides were diluted in ultra pure water from peptide stock (1 mg/mL) to a final concentration of 5 μg/mL. • 3. Add 100 μl of each peptide to corresponding wells on 96-well NeutrAvidin coated plate. • 4. Incubate plate for 1 hour at room temperature. • 5. Wash plate six times with PBS with 0.05% Tween. • 6. Add 200 μl of 5% Superblock to each well and incubated for 2 hours at room temperature. • 7. Wash plate six times with PBS with 0.05% Tween. • 8. Dilute maternal plasma samples 1:400 in sample buffer (2.5% Superblock in PBS with 0.05% Tween). • 9. Add 100 μl of diluted plasma samples to wells and incubate for 1 hour at room temperature. • 10. Wash plate six times with PBS with 0.05% Tween. • 11. Dilute Goat Anti-Human antibody 1:2,500 in PBS with 0.05% Tween. • 12. Add 100 μl of diluted Goat Anti-Human antibody to wells and incubate for 30 minutes at room temperature. • 13. Wash plate eight times with PBS with 0.05% Tween and two times with PBS Neat. • 14. Add 100 μl of BD Opt EIA substrate to each well. • 15. Incubate plate in the dark for 10 minutes at room temperature. • 16. Add 50 μl of H2SO4 to each well to stop chemical reaction. • 17. Read plate on reduced setting on spectrophotometer at 450 nm with 490 nm reference.
The samples were run in duplicate and the absorbance values were averaged. […]

[3] = Sample No. 99 (Medium Reactivity)
[4] = Sample No. 1190 (Highly Reactive)
[5] = Sample No. 1887 (Low Reactivity)

## IAPVAEEEATVPNNKIT [SEQ ID NO: 66]
Maternal autoantibodies
  binding by autoantibodies, ASD samples compared with TD samples: only bound by autoantibodies when the microarrays were incubated with plasma samples obtained from mothers whose children had a diagnosis of ASD
  Number (%) Positive In ASD: 4%
  Number Positive In ASD (n = 46): 2
  Number (%) Positive In TD: 0%
  Number Positive In TD (n = 21): 0

## HNSSLEYNIFEGMEC [SEQ ID NO: 55]
Maternal autoantibodies
  Number (%) Positive In ASD: 35%
  Number Positive In ASD (n = 46): 16
  Number (%) Positive In TD: 19%
  Number Positive In TD (n = 21): 4

## PAAPPAAPALSAADT [SEQ ID NO: 28]
Maternal autoantibodies
  Number (%) Positive In ASD: 41%
  Number Positive In ASD (n = 46): 19
  Number (%) Positive In TD: 29%
  Number Positive In TD (n = 21): 6

## ETVEFDVVEGEKGAE [SEQ ID NO: 32]
Maternal autoantibodies
  Number (%) Positive In ASD: 11%
  Number Positive In ASD (n = 46): 5
  Number (%) Positive In TD: 5%
  Number Positive In TD (n = 21): 1

## PVAEEEATVPNNKIT [SEQ ID NO: 9]
Maternal autoantibodies
  binding by autoantibodies, ASD samples compared with TD samples: only bound by autoantibodies when the microarrays were incubated with plasma samples obtained from mothers whose children had a diagnosis of ASD
  Number (%) Positive In ASD: 7%
  Number Positive In ASD (n = 46): 3
  Number (%) Positive In TD: 0%
  Number Positive In TD (n = 21): 0

## VDLGSMDEEEEIATP [SEQ ID NO: 21]
Maternal autoantibodies
  Number (%) Positive In ASD: 13%
  Number Positive In ASD (n = 46): 6
  Number (%) Positive In TD: 5%
  Number Positive In TD (n = 21): 1

## MAERKQSGKAAEDEE [SEQ ID NO: 45]
Maternal autoantibodies
  Number (%) Positive In ASD: 22%
  Number Positive In ASD (n = 46): 10
  Number (%) Positive In TD: 5%
  Number Positive In TD (n = 21): 1

## LQTPKIVADKDYSVTAN [SEQ ID NO: 71]
Maternal autoantibodies
  binding by autoantibodies, ASD samples compared with TD samples: only bound by autoantibodies when the microarrays were incubated with plasma samples obtained from mothers whose children had a diagnosis of ASD
  Number (%) Positive In ASD: 2%
  Number Positive In ASD (n = 46): 1
  Number (%) Positive In TD: 0%
  Number Positive In TD (n = 21): 0

## DCIIIVVSNPVDILT [SEQ ID NO: 12]
Maternal autoantibodies
  binding by autoantibodies, ASD samples compared with TD samples: only bound by autoantibodies when the microarrays were incubated with plasma samples obtained from mothers whose children had a diagnosis of ASD
  Number (%) Positive In ASD: 11%
  Number Positive In ASD (n = 46): 5
  Number (%) Positive In TD: 0%
  Number Positive In TD (n = 21): 0

## KTISAKTHNSSLEYN [SEQ ID NO: 54]
Maternal autoantibodies
  binding by autoantibodies, ASD samples compared with TD samples: only bound by autoantibodies when the microarrays were incubated with plasma samples obtained from mothers whose children had a diagnosis of ASD
  Number (%) Positive In ASD: 2%
  Number Positive In ASD (n = 46): 1
  Number (%) Positive In TD: 0%
  Number Positive In TD (n = 21): 0

## full-length STIP1 polypeptide: full-length stress-induced phosphoprotein 1 (STIP1) polypeptide used in a comparison ELISA
[1]
  absorbance value: ~1.0

## TPKIVADKDYSVTAN [SEQ ID NO: 11]
Maternal autoantibodies
  binding by autoantibodies, ASD samples compared with TD samples: only bound by autoantibodies when the microarrays were incubated with plasma samples obtained from mothers whose children had a diagnosis of ASD
  Number (%) Positive In ASD: 2%
  Number Positive In ASD (n = 46): 1
  Number (%) Positive In TD: 0%
  Number Positive In TD (n = 21): 0

## VPRGLYDGPVCEVSV [SEQ ID NO: 60]
Maternal autoantibodies
  Number (%) Positive In ASD: 17%
  Number Positive In ASD (n = 46): 8
  Number (%) Positive In TD: 5%
  Number Positive In TD (n = 21): 1

## PPPPPPKKETKPEPM [SEQ ID NO: 22]
[2]; [3]
  Final (absorbance, average minus blank): 0.483
  Average (absorbance): 1.482
[2]; Sample No. 142 (Negative)
  Final (absorbance, average minus blank): 0.093
  Average (absorbance): 1.295
[2]; [4]
  Final (absorbance, average minus blank): 2.045
  Average (absorbance): 2.442
[2]; [5]
  Final (absorbance, average minus blank): 0.129
  Average (absorbance): 2.101

## VLLGVDLGSMDEEEE [SEQ ID NO: 20]
Maternal autoantibodies
  Number (%) Positive In ASD: 30%
  Number Positive In ASD (n = 46): 14
  Number (%) Positive In TD: 19%
  Number Positive In TD (n = 21): 4

## VVPEPGSSLLTSFEK [SEQ ID NO: 36]
Maternal autoantibodies
  binding by autoantibodies, ASD samples compared with TD samples: only bound by autoantibodies when the microarrays were incubated with plasma samples obtained from mothers whose children had a diagnosis of ASD
  Number (%) Positive In ASD: 4%
  Number Positive In ASD (n = 46): 2
  Number (%) Positive In TD: 0%
  Number Positive In TD (n = 21): 0

## VDITSWYDGVREELE [SEQ ID NO: 38]
Maternal autoantibodies
  Number (%) Positive In ASD: 26%
  Number Positive In ASD (n = 46): 12
  Number (%) Positive In TD: 14%
  Number Positive In TD (n = 21): 3

## VDVIEDKLKGEMMDL [SEQ ID NO: 3]
Maternal autoantibodies
  Number (%) Positive In ASD: 15%
  Number Positive In ASD (n = 46): 7
  Number (%) Positive In TD: 10%
  Number Positive In TD (n = 21): 2

## MDLNDTFPEYKETIE (MDLNDTFPEYKETTE) [SEQ ID NO: 27]
Maternal autoantibodies
  Number (%) Positive In ASD: 17%
  Number Positive In ASD (n = 46): 8
  Number (%) Positive In TD: 5%
  Number Positive In TD (n = 21): 1
